From the supplement of paper PMC10307832

How the values were obtained:
Experiment in all cases: relative viability (nuclei count vs DMSO), 5 days (fraction); higher = more cells survive
[1] = compound: CCC1=CN=CN=C1N2CCN(CC2)CC3=NC4=C(N3)C=C(C=C4)C(F)(F)F + CC(=O)Nc1cccc(-n2c(=O)n(C3CC3)c(=O)c3c(Nc4ccc(I)cc4F)n(C)c(=O)c(C)c32)c1 [Trametinib] (partner 0.02 µM)
Summary of the method: (§1)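 One day after seeding in 1536-well plates, lung cancer cell lines were dosed by pin tool. Dosing was either single-drug or a fixed anchor-drug dose plus five library-drug doses (not always all listed) in √10 steps. After 5 days, nuclei were stained in one fix-and-stain step and counted on 4× images, and relative viability is the nuclei count of treated wells over that of vehicle wells, given as the median of duplicate plates.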

[2] = compound: CCC1=CN=CN=C1N2CCN(CC2)CC3=NC4=C(N3)C=C(C=C4)C(F)(F)F + COc1cccc2cc(-c3nc([C@H]4CC[C@H](C(=O)O)CC4)n4ncnc(N)c34)[nH]c12 [OSI-027] (partner 0.5 µM)
Summary of the method: as §1

Mirin + Linsitinib = compound: N=C1NC(=O)/C(=C/c2ccc(O)cc2)S1 [Mirin] + C[C@]1(O)C[C@@H](c2nc(-c3ccc4ccc(-c5ccccc5)nc4c3)c3c(N)nccn32)C1 [Linsitinib] (partner 1 µM)
Summary of the method: as §1

Mirin + Tozasertib = compound: N=C1NC(=O)/C(=C/c2ccc(O)cc2)S1 [Mirin] + Cc1cc(Nc2cc(N3CCN(C)CC3)nc(Sc3ccc(NC(=O)C4CC4)cc3)n2)n[nH]1 [Tozasertib] (partner 0.1 µM)
Summary of the method: as §1

Row | Cell Line | relative viability ([1]; first compound 0.04 µM) | relative viability ([1]; first compound 0.1265 µM) | relative viability ([1]; first compound 0.4 µM) | relative viability ([1]; first compound 1.265 µM) | relative viability ([1]; first compound 4 µM) | relative viability ([2]; first compound 0.04 µM) | relative viability ([2]; first compound 0.1265 µM) | relative viability ([2]; first compound 0.4 µM) | relative viability ([2]; first compound 1.265 µM) | relative viability ([2]; first compound 4 µM) | relative viability (Mirin + Linsitinib; first compound 0.25 µM) | relative viability (Mirin + Linsitinib; first compound 0.7906 µM) | relative viability (Mirin + Linsitinib; first compound 2.5 µM) | relative viability (Mirin + Linsitinib; first compound 7.906 µM) | relative viability (Mirin + Linsitinib; first compound 25 µM) | relative viability (Mirin + Tozasertib; first compound 0.25 µM) | relative viability (Mirin + Tozasertib; first compound 0.7906 µM) | relative viability (Mirin + Tozasertib; first compound 2.5 µM) | relative viability (Mirin + Tozasertib; first compound 7.906 µM) | relative viability (Mirin + Tozasertib; first compound 25 µM)
1 | LCLC-97TM1 | 0.195 | 0.164 | 0.183 | 0.238 | 0.2 | 0.477 | 0.582 | 0.452 | 0.506 | 0.577 | 0.174 | 0.166 | 0.177 | 0.143 | 0.141 | 0.191 | 0.151 | 0.19 | 0.138 | 0.122
2 | LCLC-103H | 0.724 | 0.731 | 0.673 | 0.683 | 0.639 | 0.48 | 0.492 | 0.4 | 0.456 | 0.457 | 1.12 | 1.11 | 1.08 | 1.22 | 1.13 | 0.417 | 0.554 | 0.481 | 0.461 | 0.336
3 | LK-2 | 0.854 | 0.727 | 0.666 | 0.452 | 0.567 | 0.17 | 0.22 | 0.182 | 0.165 | 0.23 | 0.321 | 0.317 | 0.516 | 0.282 | 0.174 | 0.188 | – | 0.149 | 0.166 | 0.16
4 | LOU-NH91 | 0.782 | 0.768 | 0.789 | 0.727 | 0.817 | 0.613 | 0.709 | 0.711 | 0.677 | 0.75 | 0.956 | – | 1.01 | 0.936 | 1.04 | 0.661 | 0.614 | 0.673 | 0.465 | 0.42
5 | LU99A | 0.558 | 0.57 | 0.505 | 0.481 | 0.578 | 0.287 | 0.281 | 0.316 | 0.283 | 0.289 | 0.515 | 0.472 | 0.508 | 0.46 | 0.421 | 0.241 | 0.216 | 0.27 | 0.207 | 0.18
6 | LXF-289 | 0.709 | 0.696 | 0.659 | 0.684 | 0.67 | 0.762 | 0.713 | 0.628 | 0.643 | 0.815 | 0.971 | 1.09 | 1 | 1.03 | 1.02 | 0.214 | 0.241 | 0.156 | 0.128 | 0.151
7 | NCI-H23 | 0.405 | 0.409 | 0.396 | 0.375 | 0.385 | 0.603 | 0.65 | 0.641 | 0.58 | 0.551 | 0.618 | – | 0.573 | 0.612 | 0.543 | 0.496 | – | 0.427 | 0.288 | 0.256
8 | NCI-H322M | 0.483 | 0.611 | 0.537 | 0.458 | 0.62 | 0.608 | 0.495 | 0.59 | 0.449 | 0.527 | 0.891 | 1.08 | 0.976 | 1.04 | 0.651 | 0.509 | 0.524 | 0.569 | 0.447 | 0.401
9 | NCI-H358 | 0.126 | 0.173 | 0.171 | 0.127 | 0.142 | 0.867 | 0.656 | 0.772 | 0.62 | 0.764 | 0.734 | 0.719 | 0.836 | 0.57 | 0.373 | 0.11 | 0.0924 | 0.114 | 0.0872 | 0.106
10 | NCI-H441 | 0.482 | 0.452 | 0.464 | 0.37 | 0.499 | 0.478 | 0.611 | 0.543 | 0.56 | 0.6 | 0.503 | 0.493 | 0.599 | 0.45 | 0.48 | 0.719 | 0.762 | 0.634 | 0.551 | 0.26
11 | NCI-H460 | 0.152 | 0.203 | 0.11 | 0.0864 | 0.0963 | 0.752 | 0.59 | 0.645 | 0.538 | 0.595 | 0.809 | 0.759 | 0.764 | 0.649 | 0.474 | 0.386 | 0.393 | 0.402 | 0.229 | 0.221
12 | NCI-H520 | 0.784 | 0.583 | 0.582 | 0.582 | 0.593 | 0.261 | 0.32 | 0.268 | 0.214 | 0.248 | 0.969 | 0.921 | 0.946 | 0.803 | 0.638 | 0.407 | 0.5 | 0.469 | 0.47 | 0.352
13 | NCI-H596 | 0.821 | 0.804 | 0.724 | 0.788 | 0.647 | 0.723 | 0.683 | 0.743 | – | 0.915 | 0.975 | 0.919 | 1.03 | 1.11 | 0.902 | 1.05 | 0.953 | 0.972 | 1.13 | 0.866
